Results: US12522602B2, “Derivatives having 2,3-dihydro-1H-indene or 2,3-dihydrobenzofuran moiety or pharmaceutically acceptable salt thereof and pharmaceutical compositions comprising the same” (YUHAN CORPORATION, priority 2019, dated 2026)

Tested on: GM1 production in Jurkat cells
Assay: cells
Assay type: cell-based
Conditions: Homo sapiens, Jurkat, 72 h

Compound: CCCOc1ccc(-c2ccc3c(c2)CC(C)(C)C3NC(=O)O[C@@H]2CN3CCC2CC3)c(OCCC)c1 (stereo partly drawn) [Example 203, (S)-quinuclidin-3-yl (5-(2,4-dipropoxyphenyl)-2,2-dimethyl-2,3-dihydro-1H-inden-1-yl)carbamate]
- IC50: 0.0082 µM

Compound: CCCCOc1ccc(F)cc1-c1ccc2c(c1)CC(C)(C)C2NC(=O)O[C@@H]1CN2CCC1CC2 (stereo partly drawn) [Example 201, (S)-quinuclidin-3-yl (5-(2-butoxy-5-fluorophenyl)-2,2-dimethyl-2,3-dihydro-1H-inden-1-yl)carbamate]
- IC50: 0.0382 µM

Compound: COc1cccc(-c2cc3c(cc2OC)C(NC(=O)O[C@@H]2CN4CCC2CC4)C(C)(C)C3)c1 (stereo partly drawn) [Example 338, (S)-quinuclidin-3-yl (6-methoxy-5-(3-methoxyphenyl)-2,2-dimethyl-2,3-dihydro-1H-inden-1-yl)carbamate]
- IC50: 0.0537 µM

Compound: CC1(C)Cc2cc(-c3cccc(F)c3)ccc2C1NC(=O)O[C@@H]1CN2CCC1CC2 (stereo partly drawn) [Example 77, (S)-quinuclidin-3-yl (5-(3-fluorophenyl)-2,2-dimethyl-2,3-dihydro-1H-inden-1-yl)carbamate]
- IC50: 0.0063 µM

Compound: O=C(NC1CCc2cc(-c3cccc(F)c3F)ccc21)O[C@@H]1CN2CCC1CC2 (stereo partly drawn) [Example 17, (S)-quinuclidin-3-yl (5-(2,3-difluorophenyl)-2,3-dihydro-1H-inden-1-yl)carbamate]
- IC50: 0.0276 µM

Compound: CCCOc1ccc(-c2ccc3c(c2)CC(C)(C)C3NC(=O)O[C@@H]2CN3CCC2CC3)cn1 (stereo partly drawn) [Example 265, (S)-quinuclidin-3-yl (2,2-dimethyl-5-(6-propoxypyridin-3-yl)-2,3-dihydro-1H-inden-1-yl)carbamate]
- IC50: 0.0067 µM

Compound: CCCc1ccc(-c2ccc3c(c2)CC(C)(C)C3NC(=O)O[C@@H]2CN3CCC2CC3)cc1 (stereo partly drawn) [Example 163, (S)-quinuclidin-3-yl (2,2-dimethyl-5-(4-propylphenyl)-2,3-dihydro-1H-inden-1-yl)carbamate]
- IC50: 0.0122 µM

Compound: O=C(NC1CCc2ccc(-c3cc(Cl)ccc3Cl)cc21)O[C@@H]1CN2CCC1CC2 (stereo partly drawn) [Example 46, (S)-quinuclidin-3-yl (6-(2,5-dichlorophenyl)-2,3-dihydro-1H-inden-1-yl)carbamate]
- IC50: 0.0192 µM

Compound: CC1(C)Cc2cc(-c3cc(F)cc(C(F)(F)F)c3)ccc2C1NC(=O)O[C@@H]1CN2CCC1CC2 (stereo partly drawn) [Example 246, (S)-quinuclidin-3-yl (5-(3-fluoro-5-(trifluoromethyl)phenyl)-2,2-dimethyl-2,3-dihydro-1H-inden-1-yl)carbamate]
- IC50: 0.0147 µM

Compound: CCCCOc1cccc(-c2ccc3c(c2)CC(C)(C)C3NC(=O)O[C@@H]2CN3CCC2CC3)c1 (stereo partly drawn) [Example 218, (S)-quinuclidin-3-yl (5-(3-butoxyphenyl)-2,2-dimethyl-2,3-dihydro-1H-inden-1-yl)carbamate]
- IC50: 0.0067 µM

Compound: COCOc1ccc(-c2ccc3c(c2)CC2(CC2)C3NC(=O)O[C@@H]2CN3CCC2CC3)cc1 (stereo partly drawn) [Example 397, (S)-quinuclidin-3-yl (5′-(4-(methoxymethoxy)phenyl)-1′,3′-dihydrospiro[cyclopropane-1,2′-inden]-1′-yl)carbamate]
- IC50: 0.0174 µM

Compound: Cc1cc(F)ccc1-c1ccc2c(c1)CC(C)(C)C2NC(=O)O[C@@H]1CN2CCC1CC2 (stereo partly drawn) [Example 228, (S)-quinuclidin-3-yl (5-(4-fluoro-2-methylphenyl)-2,2-dimethyl-2,3-dihydro-1H-inden-1-yl)carbamate]
- IC50: 0.0486 µM

Compound: CCC1(CC)Cc2cc(-c3ccc(OC)cc3OC)ccc2C1NC(=O)O[C@@H]1CN2CCC1CC2 (stereo partly drawn) [Example 296, (S)-quinuclidin-3-yl (5-(2,4-dimethoxyphenyl)-2,2-diethyl-2,3-dihydro-1H-inden-1-yl)carbamate]
- IC50: 0.0156 µM

Compound: CC(C)COc1cccc(-c2cc3c(cc2F)C(NC(=O)O[C@@H]2CN4CCC2CC4)C(C)(C)C3)c1 (stereo partly drawn) [Example 380, (S)-quinuclidin-3-yl (6-fluoro-5-(3-isobutoxyphenyl)-2,2-dimethyl-2,3-dihydro-1H-inden-1-yl)carbamate]
- IC50: 0.0365 µM

Compound: Cc1ccc(Cl)c(-c2ccc3c(c2)CC(C)(C)C3NC(=O)O[C@@H]2CN3CCC2CC3)c1 (stereo partly drawn) [Example 223, (S)-quinuclidin-3-yl (5-(2-chloro-5-methylphenyl)-2,2-dimethyl-2,3-dihydro-1H-inden-1-yl)carbamate]
- IC50: 0.0052 µM

Compound: CC(C)Oc1ccc(-c2ccc3c(c2)CC(C)(C)C3NC(=O)O[C@@H]2CN3CCC2CC3)cc1Cl (stereo partly drawn) [Example 127, (S)-quinuclidin-3-yl (5-(3-chloro-4-isopropoxyphenyl)-2,2-dimethyl-2,3-dihydro-1H-inden-1-yl)carbamate]
- IC50: 0.0182 µM

Compound: CN1CCOc2cc(-c3ccc4c(c3)CC(C)(C)C4NC(=O)O[C@@H]3CN4CCC3CC4)ccc21 (stereo partly drawn) [Example 120, (S)-quinuclidin-3-yl (2,2-dimethyl-5-(4-methyl-3,4-dihydro-2H-benzo[b][1,4]oxazin-7-yl)-2,3-dihydro-1H-inden-1-yl)carbamate]
- IC50: 0.0284 µM

Compound: CCCCc1ccc(-c2cc3c(cc2OC)C(NC(=O)O[C@@H]2CN4CCC2CC4)C(C)(C)C3)cc1 (stereo partly drawn) [Example 328, (S)-quinuclidin-3-yl (5-(4-butylphenyl)-6-methoxy-2,2-dimethyl-2,3-dihydro-1H-inden-1-yl)carbamate]
- IC50: 0.0114 µM

Compound: CC1(C)Cc2ccc(-c3ccc(OC(F)F)cc3)cc2C1NC(=O)O[C@@H]1CN2CCC1CC2 (stereo partly drawn) [Example 61, (S)-quinuclidin-3-yl (6-(4-(difluoromethoxy)phenyl)-2,2-dimethyl-2,3-dihydro-1H-inden-1-yl)carbamate]
- IC50: 0.0396 µM

Compound: CC1(C)Cc2ccc(-c3ccc(F)c(F)c3F)cc2C1NC(=O)O[C@@H]1CN2CCC1CC2 (stereo partly drawn) [Example 67, (S)-quinuclidin-3-yl (2,2-dimethyl-6-(2,3,4-trifluorophenyl)-2,3-dihydro-1H-inden-1-yl)carbamate]
- IC50: 0.144 µM

Compound: COc1ccccc1-c1ccc2c(c1)CC(C)(C)C2NC(=O)O[C@@H]1CN2CCC1CC2 (stereo partly drawn) [Example 176, (S)-quinuclidin-3-yl (5-(2-methoxyphenyl)-2,2-dimethyl-2,3-dihydro-1H-inden-1-yl)carbamate]
- IC50: 0.0276 µM

Compound: CCOc1ccc(-c2cc3c(cc2F)C(NC(=O)O[C@@H]2CN4CCC2CC4)C(C)(C)C3)cc1 (stereo partly drawn) [Example 356, (S)-quinuclidin-3-yl (5-(4-ethoxyphenyl)-6-fluoro-2,2-dimethyl-2,3-dihydro-1H-inden-1-yl)carbamate]
- IC50: 0.0216 µM

Compound: CC1(C)Cc2cc(-c3cccc4ccncc34)ccc2C1NC(=O)O[C@@H]1CN2CCC1CC2 (stereo partly drawn) [Example 140, (S)-quinuclidin-3-yl (5-(isoquinolin-8-yl)-2,2-dimethyl-2,3-dihydro-1H-inden-1-yl)carbamate]
- IC50: 0.0105 µM

Compound: COc1ccc(-c2cc3c(cc2F)C(NC(=O)O[C@@H]2CN4CCC2CC4)C(C)(C)C3)c(F)c1 (stereo partly drawn) [Example 360, (S)-quinuclidin-3-yl (6-fluoro-5-(2-fluoro-4-methoxyphenyl)-2,2-dimethyl-2,3-dihydro-1H-inden-1-yl)carbamate]
- IC50: 0.039 µM

Compound: CC1(C)Cc2cc(/C=C/C3CCCCC3)ccc2C1NC(=O)O[C@@H]1CN2CCC1CC2 (stereo partly drawn) [Example 275, (S)-quinuclidin-3-yl (5-((E)-2-cyclohexylvinyl)-2,2-dimethyl-2,3-dihydro-1H-inden-1-yl)carbamate]
- IC50: 0.025 µM

Compound: CCCCc1ccc(-c2cc3c(cc2F)C(NC(=O)O[C@@H]2CN4CCC2CC4)C(C)(C)C3)cc1 (stereo partly drawn) [Example 365, (S)-quinuclidin-3-yl (5-(4-butylphenyl)-6-fluoro-2,2-dimethyl-2,3-dihydro-1H-inden-1-yl)carbamate]
- IC50: 0.0024 µM

Compound: CCC1(CC)Cc2cc(-c3cccc(C(C)(C)C)c3)ccc2C1NC(=O)O[C@@H]1CN2CCC1CC2 (stereo partly drawn) [Example 294, (S)-quinuclidin-3-yl (5-(3-(tert-butyl)phenyl)-2,2-diethyl-2,3-dihydro-1H-inden-1-yl)carbamate]
- IC50: 0.0104 µM

Compound: CC1(C)Cc2ccc(-c3cccc(F)c3F)cc2C1NC(=O)O[C@@H]1CN2CCC1CC2 (stereo partly drawn) [Example 64, (S)-quinuclidin-3-yl (6-(2,3-difluorophenyl)-2,2-dimethyl-2,3-dihydro-1H-inden-1-yl)carbamate]
- IC50: 0.0747 µM

Compound: COc1ccc(-c2ccc3c(c2)CC(C)(C)C3NC(=O)O[C@@H]2CN3CCC2CC3)cc1Cl (stereo partly drawn) [Example 122, (S)-quinuclidin-3-yl (5-(3-chloro-4-methoxyphenyl)-2,2-dimethyl-2,3-dihydro-1H-inden-1-yl)carbamate]
- IC50: 0.0508 µM

Compound: COc1cc(F)ccc1-c1ccc2c(c1)CC(C)(C)C2NC(=O)O[C@@H]1CN2CCC1CC2 (stereo partly drawn) [Example 179, (S)-quinuclidin-3-yl (5-(4-fluoro-2-methoxyphenyl)-2,2-dimethyl-2,3-dihydro-1H-inden-1-yl)carbamate]
- IC50: 0.041 µM

Compound: CCOc1ccc(F)cc1-c1ccc2c(c1)CC(C)(C)C2NC(=O)O[C@@H]1CN2CCC1CC2 (stereo partly drawn) [Example 256, (S)-quinuclidin-3-yl (5-(2-ethoxy-5-fluorophenyl)-2,2-dimethyl-2,3-dihydro-1H-inden-1-yl)carbamate]
- IC50: 0.0246 µM

Compound: CCC1(CC)Cc2cc(-c3cccc(C(F)F)c3)ccc2C1NC(=O)O[C@@H]1CN2CCC1CC2 (stereo partly drawn) [Example 301, (S)-quinuclidin-3-yl (5-(3-(difluoromethyl)phenyl)-2,2-diethyl-2,3-dihydro-1H-inden-1-yl)carbamate]
- IC50: 0.0096 µM

Compound: CCC1(CC)Cc2cc(-c3ccc(OC)c(OC)c3)ccc2C1NC(=O)O[C@@H]1CN2CCC1CC2 (stereo partly drawn) [Example 298, (S)-quinuclidin-3-yl (5-(3,4-dimethoxyphenyl)-2,2-diethyl-2,3-dihydro-1H-inden-1-yl)carbamate]
- IC50: 0.0632 µM

Compound: CCCCOc1c(C)cc(-c2cc3c(cc2OC)C(NC(=O)O[C@@H]2CN4CCC2CC4)C(C)(C)C3)cc1C (stereo partly drawn) [Example 331, (S)-quinuclidin-3-yl (5-(4-butoxy-3,5-dimethylphenyl)-6-methoxy-2,2-dimethyl-2,3-dihydro-1H-inden-1-yl)carbamate]
- IC50: 0.0226 µM

Compound: COc1c(Cl)ccc(-c2ccc3c(c2)CC(C)(C)C3NC(=O)O[C@@H]2CN3CCC2CC3)c1Cl (stereo partly drawn) [Example 162, (S)-quinuclidin-3-yl (5-(2,4-dichloro-3-methoxyphenyl)-2,2-dimethyl-2,3-dihydro-1H-inden-1-yl)carbamate]
- IC50: 0.0388 µM

Compound: CC(C)Oc1cc(-c2ccc3c(c2)CC(C)(C)C3NC(=O)O[C@@H]2CN3CCC2CC3)ccn1 (stereo partly drawn) [Example 264, (S)-quinuclidin-3-yl (5-(2-isopropoxypyridin-4-yl)-2,2-dimethyl-2,3-dihydro-1H-inden-1-yl)carbamate]
- IC50: 0.0144 µM
